Laboratory results taken from publication PMC10999558, “Analyzing resistome in soil and Human gut: a study on the characterization and risk evaluation of antimicrobial peptide resistance” (Frontiers in Microbiology, 2024).

Legend:
Assay type in all cases: cell-based, Escherichia coli
Conditions in all cases: MHB, 37°C, 24 h, triplicate
E. coli BL21(DE3) = assay: MIC, broth microdilution, retransformed E. coli BL21(DE3)
Experimental: (§1) Escherichia coli DH5α, E. coli BL21(DE3), and E. coli JM109 were utilized in this study.
(§2) The MICs were determined using the broth microdilution method in 96-well microtiter plates ([Wiegand et al., 2008]). In brief, a 1:100 dilution of the mid-exponential phase bacterial culture (OD600 = 0.5), consisting of 5 μL (1 × 10^5 CFU/mL), was introduced into polypropylene 96-well plates. These plates contained a two-fold dilution series of AMP in a total volume of 100 μL MHB per well. The incubation of the plates occurred at 37°C in a humidity chamber. The MIC was identified as the lowest concentration that hindered visible bacterial growth after 24 h of incubation. Each experiment was conducted in triplicate.
(§3) Before washing down the colonies, we randomly selected two clones from each plate containing distinct AMP. Colony PCRs were conducted using M13 primer pairs to validate the presence of inserts and determine their sizes. The selected colonies were then subjected to sequencing. The specific details are provided in Supplementary Table S2. Following that, plasmids were isolated using the Plasmid Midiprep Kit (Zomanbio, ZP103) following the manufacturer’s guidelines. After the plasmids were successfully reintroduced into E. coli JM109 and E. coli BL 21(DE3), the MICs of the transformed strains against the AMP used for selection were tested. This testing process was carried out in triplicate.
(§4) Following validation, the colonies displaying resistance underwent additional testing via MIC assessments for the remaining four AMPs that were not employed during the selection process. This experimental procedure was carried out in triplicate.

E. coli JM109 = assay: MIC, broth microdilution, retransformed E. coli JM109
Experimental: as §1, §2, §3, §4

E. coli DH5α = assay: MIC, broth microdilution, E. coli DH5α carrying pUC118 or resistance-conferring plasmids
Experimental: as §1, §2, §4

With Colistin [CST] the MIC (E. coli BL21(DE3); colony pUC118-BL21(DE3) (control, no insert)) was 1 µg/mL, the MIC (E. coli BL21(DE3); colony pUC118-FCST1-BL21(DE3) (feces insert 1 selected against colistin)) was 2 µg/mL and the MIC (E. coli BL21(DE3); colony pUC118-FCST2-BL21(DE3) (feces insert 2 selected against colistin)) was 2 µg/mL. It also gave an MIC (E. coli BL21(DE3); colony pUC118-FGQ1-BL21(DE3) (feces insert 1 selected against melittin)) of 2 µg/mL, an MIC (E. coli BL21(DE3); colony pUC118-FGQ2- BL21(DE3) (feces insert 2 selected against melittin)) of 2 µg/mL and an MIC (E. coli BL21(DE3); colony pUC118-FIB1-BL21(DE3) (feces insert 1 selected against iseganan)) of 1 µg/mL. For the same substance, the MIC (E. coli BL21(DE3); colony pUC118-FIB2-BL21(DE3) (feces insert 2 selected against iseganan)) was 2 µg/mL, the MIC (E. coli BL21(DE3); colony pUC118-FPB1-BL21(DE3) (feces insert 1 selected against polymyxin B)) was 4 µg/mL and the MIC (E. coli BL21(DE3); colony pUC118-FPB2-BL21(DE3) (feces insert 2 selected against polymyxin B)) was 2 µg/mL. The MIC (E. coli BL21(DE3); colony pUC118-FSA1-BL21(DE3) (feces insert 1 selected against cathelicidin-DM)) was 2 µg/mL, the MIC (E. coli BL21(DE3); colony pUC118-FSA2-BL21(DE3) (feces insert 2 selected against cathelicidin-DM)) was 2 µg/mL and the MIC (E. coli BL21(DE3); colony pUC118-SCST1-BL21(DE3) (soil insert 1 selected against colistin)) was 2 µg/mL. For the same substance, the MIC (E. coli BL21(DE3); colony pUC118-SCST2-BL21(DE3) (soil insert 2 selected against colistin)) was 2 µg/mL, the MIC (E. coli BL21(DE3); colony pUC118-SGQ1-BL21(DE3) (soil insert 1 selected against melittin)) was 1 µg/mL and the MIC (E. coli BL21(DE3); colony pUC118-SGQ2-BL21(DE3) (soil insert 2 selected against melittin)) was 1 µg/mL. The MIC (E. coli BL21(DE3); colony pUC118-SIB1-BL21(DE3) (soil insert 1 selected against iseganan)) was 1 µg/mL, the MIC (E. coli BL21(DE3); colony pUC118-SIB2-BL21(DE3) (soil insert 2 selected against iseganan)) was 1 µg/mL and the MIC (E. coli BL21(DE3); colony pUC118-SPB1-BL21(DE3) (soil insert 1 selected against polymyxin B)) was 1 µg/mL. It also gave an MIC (E. coli BL21(DE3); colony pUC118-SPB2-BL21(DE3) (soil insert 2 selected against polymyxin B)) of 2 µg/mL, an MIC (E. coli BL21(DE3); colony pUC118-SSA1-BL21(DE3) (soil insert 1 selected against cathelicidin-DM)) of 2 µg/mL and an MIC (E. coli BL21(DE3); colony pUC118-SSA2-BL21(DE3) (soil insert 2 selected against cathelicidin-DM)) of 2 µg/mL. It also gave an MIC (E. coli JM109; colony pUC118-FCST1-JM109 (feces insert 1 selected against colistin)) of 0.5 µg/mL, an MIC (E. coli JM109; colony pUC118-FCST2-JM109 (feces insert 2 selected against colistin)) of 1 µg/mL and an MIC (E. coli JM109; colony pUC118-FGQ1-JM109 (feces insert 1 selected against melittin)) of 0.5 µg/mL. For the same substance, the MIC (E. coli JM109; colony pUC118-FGQ2-JM109 (feces insert 2 selected against melittin)) was 0.5 µg/mL, the MIC (E. coli JM109; colony pUC118-FIB1-JM109 (feces insert 1 selected against iseganan)) was 0.25 µg/mL and the MIC (E. coli JM109; colony pUC118-FIB2-JM109 (feces insert 2 selected against iseganan)) was 0.5 µg/mL. The MIC (E. coli JM109; colony pUC118-FPB1-JM109 (feces insert 1 selected against polymyxin B)) was 1 µg/mL, the MIC (E. coli JM109; colony pUC118-FPB2-JM109 (feces insert 2 selected against polymyxin B)) was 0.5 µg/mL and the MIC (E. coli JM109; colony pUC118-FSA1-JM109 (feces insert 1 selected against cathelicidin-DM)) was 2 µg/mL. The MIC (E. coli JM109; colony pUC118-FSA2-JM109 (feces insert 2 selected against cathelicidin-DM)) was 0.5 µg/mL, the MIC (E. coli JM109; colony pUC118-JM109 (control, no insert)) was 0.25 µg/mL and the MIC (E. coli JM109; colony pUC118-SCST1-JM109 (soil insert 1 selected against colistin)) was 0.5 µg/mL. It also gave an MIC (E. coli JM109; colony pUC118-SCST2-JM109 (soil insert 2 selected against colistin)) of 0.5 µg/mL, an MIC (E. coli JM109; colony pUC118-SGQ1-JM109 (soil insert 1 selected against melittin)) of 0.25 µg/mL and an MIC (E. coli JM109; colony pUC118-SGQ2-JM109 (soil insert 2 selected against melittin)) of 0.25 µg/mL. The MIC (E. coli JM109; colony pUC118-SIB1-JM109 (soil insert 1 selected against iseganan)) was 0.25 µg/mL, the MIC (E. coli JM109; colony pUC118-SIB2-JM109 (soil insert 2 selected against iseganan)) was 0.25 µg/mL and the MIC (E. coli JM109; colony pUC118-SPB1-JM109 (soil insert 1 selected against polymyxin B)) was 0.25 µg/mL. It also gave an MIC (E. coli JM109; colony pUC118-SPB2-JM109 (soil insert 2 selected against polymyxin B)) of 0.5 µg/mL, an MIC (E. coli JM109; colony pUC118-SSA1-JM109 (soil insert 1 selected against cathelicidin-DM)) of 0.5 µg/mL and an MIC (E. coli JM109; colony pUC118-SSA2-JM109 (soil insert 2 selected against cathelicidin-DM)) of 0.25 µg/mL. It also gave an MIC (E. coli DH5α; E. coli DH5α containing pUC118 plasmids) of 0.25 µg/mL, an MIC (E. coli DH5α; colony pUC118-DH5α (control, no insert)) of 0.25 µg/mL and an MIC (E. coli DH5α; colony pUC118-FCST1-DH5α (feces insert 1 selected against colistin)) of 0.5 µg/mL. For the same substance, the MIC (E. coli DH5α; colony pUC118-FCST2-DH5α (feces insert 2 selected against colistin)) was 0.5 µg/mL, the MIC (E. coli DH5α; colony pUC118-FGQ1-DH5α (feces insert 1 selected against melittin)) was 0.5 µg/mL and the MIC (E. coli DH5α; colony pUC118-FGQ2-DH5α (feces insert 2 selected against melittin)) was 0.5 µg/mL. The MIC (E. coli DH5α; colony pUC118-FIB1-DH5α (feces insert 1 selected against iseganan)) was 0.25 µg/mL, the MIC (E. coli DH5α; colony pUC118-FIB2-DH5α (feces insert 2 selected against iseganan)) was 1 µg/mL and the MIC (E. coli DH5α; colony pUC118-FPB1-DH5α (feces insert 1 selected against polymyxin B)) was 2 µg/mL. For the same substance, the MIC (E. coli DH5α; colony pUC118-FPB2-DH5α (feces insert 2 selected against polymyxin B)) was 1 µg/mL, the MIC (E. coli DH5α; colony pUC118-FSA1-DH5α (feces insert 1 selected against cathelicidin-DM)) was 0.5 µg/mL and the MIC (E. coli DH5α; colony pUC118-FSA2-DH5α (feces insert 2 selected against cathelicidin-DM)) was 0.5 µg/mL. The MIC (E. coli DH5α; colony pUC118-SCST1-DH5α (soil insert 1 selected against colistin)) was 0.5 µg/mL, the MIC (E. coli DH5α; colony pUC118-SCST2-DH5α (soil insert 2 selected against colistin)) was 1 µg/mL and the MIC (E. coli DH5α; colony pUC118-SGQ1-DH5α (soil insert 1 selected against melittin)) was 0.25 µg/mL. It also gave an MIC (E. coli DH5α; colony pUC118-SGQ2-DH5α (soil insert 2 selected against melittin)) of 0.25 µg/mL, an MIC (E. coli DH5α; colony pUC118-SIB1-DH5α (soil insert 1 selected against iseganan)) of 0.25 µg/mL and an MIC (E. coli DH5α; colony pUC118-SIB2-DH5α (soil insert 2 selected against iseganan)) of 0.25 µg/mL. The MIC (E. coli DH5α; colony pUC118-SPB1-DH5α (soil insert 1 selected against polymyxin B)) was 0.25 µg/mL, the MIC (E. coli DH5α; colony pUC118-SPB2-DH5α (soil insert 2 selected against polymyxin B)) was 0.5 µg/mL and the MIC (E. coli DH5α; colony pUC118-SSA1-DH5α (soil insert 1 selected against cathelicidin-DM)) was 0.5 µg/mL. It also gave an MIC (E. coli DH5α; colony pUC118-SSA2-DH5α (soil insert 2 selected against cathelicidin-DM)) of 1 µg/mL.
